How the values were obtained:
Leishmania amazonensis [1] = test: Antileishmanial activity against Leishmania amazonensis promastigotes assessed as inhibition of parasite viability at 50 uM measured after 24 hrs by resazurin based colorimetric assay relative to control; format: functional
Leishmania amazonensis [2] = test: Antileishmanial activity against Leishmania amazonensis promastigotes assessed as inhibition of parasite viability measured after 24 hrs by resazurin based colorimetric assay; format: functional, organism-based
[3] = Cytotoxicity against mouse L929 cells assessed as cell viability upto 50 uM measured after 24 hrs by MTT assay relative to control; format: toxicity, cell-based; conditions: read-out: Activity
[4] = Cytotoxicity against mouse L929 cells assessed as cell viability at 100 uM measured after 24 hrs by MTT assay relative to control; format: toxicity, cell-based; conditions: read-out: Activity

COc1cc(OC)c(OC)cc1/C=C/C(=O)c1ccc(Br)cc1
inhibition at 50 µM (Leishmania amazonensis [1]): 98.2% | IC50 (Leishmania amazonensis [2]): 6.33 µM | viability at 24 h, 50 µM [3]: > 80% | viability at 24 h, 100 µM [4]: > 60%

CN(C)c1ccc(/C=C/C(=O)c2cccc(Br)c2)cc1
inhibition at 50 µM (Leishmania amazonensis [1]): 98.7% | IC50 (Leishmania amazonensis [2]): 10.8 µM | viability at 24 h, 50 µM [3]: > 80% | viability at 24 h, 100 µM [4]: > 70%

O=C(/C=C/c1cccs1)c1ccc(Br)cc1
inhibition at 50 µM (Leishmania amazonensis [1]): 93.6%

COc1ccc(/C=C/C(=O)c2cccc(Br)c2)cc1
inhibition at 50 µM (Leishmania amazonensis [1]): 93%

COc1ccc(/C=C/C(=O)c2ccc(Br)cc2)cc1
inhibition at 50 µM (Leishmania amazonensis [1]): 80.7%

O=C(/C=C/c1ccccc1)c1cccc(Br)c1
inhibition at 50 µM (Leishmania amazonensis [1]): 99.8% | IC50 (Leishmania amazonensis [2]): 13.8 µM | viability at 24 h, 50 µM [3]: > 80% | viability at 24 h, 100 µM [4]: > 60%

CN(C)c1ccc(/C=C/C(=O)c2ccc(Br)cc2)cc1
inhibition at 50 µM (Leishmania amazonensis [1]): 91.2%

CSc1ccc(/C=C/C(=O)c2ccc(Br)cc2)cc1
inhibition at 50 µM (Leishmania amazonensis [1]): 39.3%

Cc1ccc(/C=C/C(=O)c2ccc(Br)cc2)cc1
inhibition at 50 µM (Leishmania amazonensis [1]): 57%

O=C(/C=C/c1ccc2c(c1)OCO2)c1ccc(Br)cc1
inhibition at 50 µM (Leishmania amazonensis [1]): 87.5%

O=C(/C=C/c1cccc2ccccc12)c1ccc(Br)cc1
inhibition at 50 µM (Leishmania amazonensis [1]): 83.9%

O=C(/C=C/c1ccc(OCc2ccccc2)cc1)c1cccc(Br)c1
inhibition at 50 µM (Leishmania amazonensis [1]): 95%

O=C(/C=C/c1ccccc1F)c1ccc(Br)cc1
inhibition at 50 µM (Leishmania amazonensis [1]): 99.4% | IC50 (Leishmania amazonensis [2]): 23.9 µM | viability at 24 h, 50 µM [3]: > 80% | viability at 24 h, 100 µM [4]: > 60%

Cc1ccc(/C=C/C(=O)c2cccc(Br)c2)cc1
inhibition at 50 µM (Leishmania amazonensis [1]): 94.8%

O=C(/C=C/c1ccccc1F)c1cccc(Br)c1
inhibition at 50 µM (Leishmania amazonensis [1]): 91.7%

O=C(/C=C/C=C/c1ccccc1)c1ccc(Br)cc1
inhibition at 50 µM (Leishmania amazonensis [1]): 33.8%

O=C(/C=C/c1cccs1)c1cccc(Br)c1
inhibition at 50 µM (Leishmania amazonensis [1]): 86.7%

O=C(/C=C/C=C/c1ccccc1)c1cccc(Br)c1
inhibition at 50 µM (Leishmania amazonensis [1]): 90.8%

O=C(/C=C/c1cccc2ccccc12)c1cccc(Br)c1
inhibition at 50 µM (Leishmania amazonensis [1]): 90.8%

O=C(/C=C/c1ccc(OCc2ccccc2)cc1)c1ccc(Br)cc1
inhibition at 50 µM (Leishmania amazonensis [1]): 24.2%

CSc1ccc(/C=C/C(=O)c2cccc(Br)c2)cc1
inhibition at 50 µM (Leishmania amazonensis [1]): 97.3% | IC50 (Leishmania amazonensis [2]): 11.4 µM | viability at 24 h, 50 µM [3]: > 80% | viability at 24 h, 100 µM [4]: > 70%

C[C@@H]1[C@H](O)[C@@H](C)/C=C/C=C/C=C/C=C/C=C/C=C/C=C/[C@H](O[C@@H]2O[C@H](C)[C@@H](O)[C@H](N)[C@@H]2O)C[C@@H]2O[C@](O)(C[C@@H](O)C[C@@H](O)[C@H](O)CC[C@@H](O)C[C@@H](O)CC(=O)O[C@H]1C)C[C@H](O)[C@H]2C(=O)O [AMPHOTERICIN B]
IC50 (Leishmania amazonensis [2]): 0.115 µM

O=C(/C=C/c1ccccc1)c1ccccc1 [CHALCONE]
inhibition at 50 µM (Leishmania amazonensis [1]): 90.1% | IC50 (Leishmania amazonensis [2]): 10.6 µM
